# Test system: fGPR92 receptor
# Assay: fGPR92 activation in CHO-K1 cells, calcium sensitive fluorescent dye (FLIPR Tetra), agonist mode
# Format: cell-based, cat
# Conditions: CHO-K1 cells stably expressing fGPR92
# Protocol: The present example describes the activation of the cat GPR92 receptor (fGPR92) by various compounds and compositions in vitro. Samples that can function as GPR92 agonists were identified by in vitro functional characterization. The effectiveness of a sample in activating the fGPR92 receptor was evaluated. Methods: CHO-Kl cells stably expressing fGPR92 were used to screen 118 test samples to identify samples that can activate the fGPR92 receptor. Activation of the fGPR92 receptor was detected by changes in intracellular calcium levels using a calcium sensitive fluorescent dye. Cells without fGPR92 receptor expression (mock cells) were used as a control. A FLIPR® Tetra system was used for data capture. Each sample was first tested for its ability to activate fGPR92 at three different dose levels in both agonist mode and positive allosteric modulator mode. Active samples were further tested at eight different dose levels in both agonist mode and positive allosteric modulator mode. Peptone from Sigma-Aldrich (product number: P5905; CAS number 73049-73-7) was used in this Example. Dose response curves were then generated for each sample. Menthol and cinnamaldehyde were used as negative controls. In the agonist mode (AGO), 14:0 LPA at 10 μM (EC100) was used as a positive control and the assay buffer was used as a negative control. […]
row,SMILES,activation of fGPR92 receptor
1,"CC(C)[C@@H]1CC[C@@H](C)C[C@H]1O [Menthol, L-menthol]",did not activate fGPR92 receptor
2,"O=C/C=C/c1ccccc1 [cinnamaldehyde, cinnamic aldehyde]",did not activate fGPR92 receptor

# From patent publication US12207672B2, “Compounds that modulate GPR92 receptor activity and pet food products containing the same” (MARS, INCORPORATED, priority 2018, dated 2025)
